Molecular target: T1, N-terminally GST-tagged human full length recombinant Mps-1 kinase (Homo sapiens, UniProt P33981)
T1 construct: N-terminally GST-tagged human full length recombinant Mps-1 kinase; purchased Invitrogen, Karslruhe, Germany PV4071
T1 sequence (P33981 1-857): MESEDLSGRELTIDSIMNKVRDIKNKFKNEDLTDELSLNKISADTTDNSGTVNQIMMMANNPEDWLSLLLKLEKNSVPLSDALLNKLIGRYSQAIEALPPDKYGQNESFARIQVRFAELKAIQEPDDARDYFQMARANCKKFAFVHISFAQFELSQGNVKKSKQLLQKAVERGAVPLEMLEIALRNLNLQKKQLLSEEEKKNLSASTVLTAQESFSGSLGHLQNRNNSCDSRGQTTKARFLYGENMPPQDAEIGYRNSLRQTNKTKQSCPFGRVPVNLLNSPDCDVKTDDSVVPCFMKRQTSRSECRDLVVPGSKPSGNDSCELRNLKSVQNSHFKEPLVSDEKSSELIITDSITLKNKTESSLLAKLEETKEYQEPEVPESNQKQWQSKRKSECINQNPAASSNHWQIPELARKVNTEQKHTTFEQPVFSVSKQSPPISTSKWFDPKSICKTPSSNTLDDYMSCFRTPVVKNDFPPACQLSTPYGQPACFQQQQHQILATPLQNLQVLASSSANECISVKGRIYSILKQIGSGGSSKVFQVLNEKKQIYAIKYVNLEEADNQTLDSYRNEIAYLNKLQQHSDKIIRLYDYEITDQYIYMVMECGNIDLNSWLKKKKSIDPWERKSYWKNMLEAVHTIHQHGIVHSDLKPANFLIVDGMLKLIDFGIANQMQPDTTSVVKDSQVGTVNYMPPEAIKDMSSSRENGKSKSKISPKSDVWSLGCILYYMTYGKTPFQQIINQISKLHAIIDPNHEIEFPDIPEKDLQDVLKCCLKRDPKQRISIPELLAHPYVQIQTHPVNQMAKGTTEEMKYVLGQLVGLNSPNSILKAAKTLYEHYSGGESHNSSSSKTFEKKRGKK
Assay: Mps-1 kinase assay (TR-FRET)
Type: biochemical
Conditions: Mps1 IC50 [nM], 10 μM ATP, 1 μM peptide substrate, 60 min at 22° C.
How it was run: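 GST-tagged full-length recombinant Mps-1 at about 1 nM final, adjusted per lot for linear range, phosphorylated a biotinylated peptide. Product bound Eu-anti-phospho(Ser/Thr) antibody over 1 h at 22° C and was read by TR-FRET to streptavidin-XLent. Compounds scored for kinase inhibition.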

Structure (SMILES)	IC50 [nM]
Cc1ccc(Oc2cc(NCCC(F)(F)F)c3ncc(-c4ccc(C(=O)NC5CC5)c(C)c4)n3n2)cc1 [Example 479, N-cyclopropyl-2-methyl-4-{6-(4-methylphenoxy)-8-[(3,3,3-trifluoro-propyl)amino]imidazo [1,2-b]pyridazin-3-yl} benzamide]	0.2
CNC(=O)c1ccc(-c2cnc3c(NCCN4CCOCC4)cc(Oc4cc(F)ccc4C)nn23)cc1C [Example 566, 4-[6-(5-fluoro-2-methylphenoxy)-8-{[2-(morpholin-4-yl)ethyl]amino}imidazo[1,2-b]pyridazin-3-yl]-N,2-dimethylbenzamide]	1.7
Cc1cc(-c2cnc3c(NCc4nnn[nH]4)cc(Oc4cccc(F)c4)nn23)ccc1C(=O)NC1CC1 [Example 496, N-cyclopropyl-4-{6-(3-fluoro-phenoxy)-8-[(1H-tetrazol-5-ylmethyl)amino]imidazo[1,2-b]pyridazin-3-yl}-2-methylbenzamide]	8.9
COc1ccc(Nc2cc(NCCC(F)(F)F)c3ncc(-c4ccc(C(=O)NC5CC5)c(C)c4)n3n2)cn1 [Example 429, N-cyclopropyl-4-{6-[(6-methoxypyridin-3-yl)amino]-8-[(3,3,3-trifluoropropyl)amino]imidazo[1,2-b]pyridazin-3-yl}-2-methylbenzamide]	0.1
COC(C)(C)CNc1cc(-c2ccccc2CO)nn2c(-c3ccc(C(=O)NC4CC4)c(C)c3)cnc12 [Example 38, N-cyclopropyl-4-{6-[2-(hydroxymethyl)phenyl]-8-[(2-methoxy-2-methylpropyl)amino]imidazo[1,2-b]pyridazin-3-yl}-2-methylbenzamide]	10.3
Cc1cc(-c2cnc3c(NCCC(F)(F)F)cc(Oc4ccccc4F)nn23)ccc1C(=O)NC1CC1 [Example 473, N-cyclopropyl-4-{6-(2-fluorophenoxy)-8-[(3,3,3-trifluoropropyl)amino]imidazo[1,2-b]pyridazin-3-yl}-2-methyl-benzamide]	0.4
Cc1cc(-c2cnc3c(NCC(C)(C)O)cc(Sc4cccs4)nn23)ccc1C(=O)NC1CC1 [Example 261, N-cyclopropyl-4-{8-[(2-hydroxy-2-methylpropyl)amino]-6-(2-thienylsulfanyl)imidazo[1,2-b]pyridazin-3-yl}-2-methylbenzamide]	0.5
Cc1cc(-c2cnc3c(NCCC(N)=O)cc(Oc4cccc(F)c4)nn23)ccc1C(=O)NC1CC1 [Example 549, 4-{8-[(3-amino-3-oxopropyl)amino]-6-(3-fluorophenoxy)imidazo[1,2-b]pyridazin-3-yl}-N-cyclopropyl-2-methyl-benzamide]	0.2
Cc1cc(-c2cnc3c(NCCC(F)(F)F)cc(Sc4ccc(C(F)(F)F)cc4)nn23)ccc1C(=O)NC1CC1 [Example 247, N-cyclopropyl-2-methyl-4-(6-{[4-(trifluoromethyl)phenyl]sulfanyl}-8-[(3,3,3-trifluoropropyl)amino]imidazo[1,2-b]pyridazin-3-yl)benzamide]	1.7
CSc1cc(NCC(O)C(F)(F)F)c2ncc(-c3ccc(C(=O)NC4CC4)c(C)c3)n2n1 (racemic) [Example 206, (RS)N-cyclopropyl-2-methyl-4-{6-(methylsulfanyl)-8-[(3,3,3-trifluoro-2-hydroxypropyl)amino]imidazo[1,2-b]pyridazin-3-yl}benzamide]	6.2
Cc1cc(-c2cnc3c(NCCC(F)(F)F)cc(Sc4cccc(F)c4C)nn23)ccc1C(=O)NC1CC1 [Example 387, N-cyclopropyl-4-{6-[(3-fluoro-2-methylphenyl)sulfanyl]-8-[(3,3,3-trifluoropropyl)amino]imidazo[1,2-b]pyridazin-3-yl}-2-methylbenzamide]	0.3
Cc1cccc(Nc2cc(NCCC(F)(F)F)c3ncc(-c4ccc(C(=O)NC5CC5)c(C)c4)n3n2)c1 [Example 423, N-cyclopropyl-2-methyl-4-{6-[(3-methylphenyl)amino]-8-[(3,3,3-trifluoropropyl)amino]imidazo[1,2-b]pyridazin-3-yl}benzamide]	0.3

Second part, the compound after the results:

IC50 [nM]	Structure (SMILES)
0.2	Cc1cc(-c2cnc3c(NCC(C)(C)O)cc(Oc4cc(F)cc(F)c4)nn23)ccc1C(=O)NC1CC1 [Example 262, N-cyclopropyl-4-{6-(3,5-difluorophenoxy)-8-[(2-hydroxy-2-methylpropyl)amino]imidazo[1,2-b]pyridazin-3-yl}-2-methylbenzamide]
2.2	Cc1cc(-c2cnc3c(NCCC(F)(F)F)cc(Oc4cccc(F)c4)nn23)ccc1C(=O)NCC(C)C [Example 557, 4-{6-(3-fluorophenoxy)-8-[(3,3,3-trifluoropropyl)amino]imidazo[1,2-b]pyridazin-3-yl}-N-isobutyl-2-methylbenzamide]
0.2	Cc1cc(-c2cnc3c(NCCC(F)(F)F)cc(Oc4cccc(F)c4F)nn23)ccc1C(=O)NC1CC1 [Example 258, N-cyclopropyl-4-{6-(2,3-difluorophenoxy)-8-[(3,3,3-trifluoropropyl)amino]imidazo[1,2-b]pyridazin-3-yl}-2-methylbenzamide]
1.4	CNC(=O)c1ccc(-c2cnc3c(NCCC(F)(F)F)cc(Oc4cc(F)ccc4C)nn23)cc1C [Example 577, 4-{6-(5-fluoro-2-methylphenoxy)-8-[(3,3,3-trifluoropropyl)a-mino]imidazo[1,2-b]pyridazin-3-yl}-N,2-dimethylbenzamide]
0.2	Cc1cc(-c2cnc3c(NCCC(F)(F)F)cc(Sc4cccc(F)c4F)nn23)ccc1C(=O)NC1CC1 [Example 252, N-cyclopropyl-4-{6-[(2,3-difluorophenyl)sulfanyl]-8-[(3,3,3-trifluoropropyl)amino]imidazo[1,2-b]pyridazin-3-yl}-2-methylbenzamide]
0.1	CNc1cc(Oc2ccc(OC)cc2F)nn2c(-c3ccc(C(=O)NC4CC4)c(C)c3)cnc12 [Example 534, N-cyclopropyl-4-[6-(2-fluoro-4-methoxy-phenoxy)-8-(methyl-amino)imidazo[1,2-b]pyridazin-3-yl]-2-methylbenzamide]
0.7	Cc1cc(F)cc(Sc2cc(NCCC(F)(F)F)c3ncc(-c4ccc(C(=O)NC5CC5)c(C)c4)n3n2)c1 [Example 79, N-cyclopropyl-4-{6-[(3-fluoro-5-methylphenyl)sulfanyl]-8-[(3,3,3-trifluoropropyl)amino]imidazo[1,2-b]pyridazin-3-yl}-2-methylbenzamide]
< 1	Cc1cc(-c2cnc3c(NCC(O)C(F)(F)F)cc(Sc4cccc(F)c4)nn23)ccc1C(=O)NC1CC1 (racemic) [Example 216, (RS)—N-cyclopropyl-4-{6-[(3-fluorophenyl)sulfanyl]-8-[(3,3,3-trifluoro-2-hydroxypropyl)amino]imidazo[1,2-b]pyridazin-3-yl}-2-methylbenzamide]
8	Cc1cc(-c2cnc3c(NCC(F)(F)F)cc(Oc4cccc(F)c4)nn23)ccc1C(=O)NC1CC1 [Example 514, N-cyclopropyl-4-{6-(3-fluoro-phenoxy)-8-[(2,2,2-trifluoroethyl)amino]imidazo[1,2-b]pyridazin-3-yl}-2-methylbenzamide]
0.6	CCNC(=O)c1ccc(-c2cnc3c(NCCC(F)(F)F)cc(Oc4ccc(O)cc4F)nn23)cc1C [Example 561, N-ethyl-4-{6-(2-fluoro-4-hydroxyphenoxy)-8-[(3,3,3-trifluoropropyl)amino]imidazo[1,2-b]pyridazin-3-yl}-2-methylbenzamide]
1.1	Cc1cc(-c2cnc3c(NCC4CNC4)cc(Oc4cncc(F)c4)nn23)ccc1C(=O)NC1CC1 [Example 544, 4-{8-[(azetidin-3-ylmethyl)amino]-6-[(5-fluoropyridin-3-yl)oxy]imidazo[1,2-b]pyridazin-3-yl}-N-cyclopropyl-2-methylbenzamide]
0.3	Cc1cc(-c2cnc3c(NCC(C)(C)O)cc(Oc4ccc(F)cc4)nn23)ccc1C(=O)NC1CC1 [Example 253, N-cyclopropyl-4-{6-(4-fluorophenoxy)-8-[(2-hydroxy-2-methylpropyl)amino]imidazo[1,2-b]pyridazin-3-yl}-2-methylbenzamide]
0.6	CC(C)(O)CNc1cc(Sc2cccc(F)c2)nn2c(-c3ccc(C(=S)NC4CC4)cc3)cnc12 [Example 246, N-cyclopropyl-4-{6-[(3-fluorophenyl)sulfanyl]-8-[(2-hydroxy-2-methylpropyl)amino]imidazo[1,2-b]pyridazin-3-yl}benzenecarbothioamide]
1.5	Cc1nnc(-c2ccc(-c3cc(NCC(C)C)c4ncc(-c5ccc(C(=O)NC6CC6)cc5)n4n3)cc2)o1 [Example 148, N-cyclopropyl-4-{6-[4-(5-methyl-1,3,4-oxadiazol-2-yl)phenyl]-8-[(2-methylpropyl)amino]imidazo[1,2-b]pyridazin-3-yl}benzamide]

Reference: US9255100B2 (BAYER INTELLECTUAL PROPERTY GMBH, priority 2010, dated 2016)
